≈ marks a conversion by molar mass, not a printed value.
Legend:
[1] = tested on: Mycobacterium tuberculosis; details: cited from earlier work
HS 27 cells = assay: Growth inhibition assay, HS 27 cells (crystal violet); assay type: cell-based; details: Homo sapiens, HS27, 72 h; 3 days with compound
Experimental: (§1) Cells were seeded at 5×10^3 per well into 96-well plates and incubated for 3 days in RPMI, 10% FBS at 37° C. in a 5% CO2 :95% air atmosphere. Medium was removed and replaced with media plus compound. Compound doses were 10 serial dilutions from 200 μg/ml to 0.39 μg/ml. Cells were returned to the incubator for 3 additional days. The medium was removed and plates were washed twice with phosphate buffered saline. Wells were filled with 100 μl of 0.2% crystal violet in 2% ethanol for 10 min. Stain was removed from the wells and the plates were washed 3 times with distilled H2 O. After at least 4 h of drying wells were filled with 100 μl of 1% SDS and plates were shaken to disolve any dye crystals. Absorbance at 560 nm minus 650 nm in each well was measured using a Molecular Devices plate reader. IC50 values were calculated from 4-parameter curve-fits of the dose-response curves.

Candida albicans = assay: Control organism susceptibility, Candida albicans; assay type: cell-based; details: read-out: MIC (control organism)
[2] = biological target: T1, FAS (fatty acid synthase), Cancer (Homo sapiens, UniProt P49327); assay: FAS enzymatic assay, crude extract of breast cancer cell line ZR-75-1 (NADPH oxidation); assay type: biochemical; details: ZR-75-1 crude cell extract, 30 min incubation at 10°-25° C.; read-out: IC50 for inhibition of FAS activity, Cancer
T1 construct: using a crude cell extract of a cancer cell line or Saccharomyces cerevisiae; endogenous in cells; host or cells: ZR-75-1 breast cancer cell line (crude dialyzed digitonin extract)
T1 sequence (P49327 whole entry): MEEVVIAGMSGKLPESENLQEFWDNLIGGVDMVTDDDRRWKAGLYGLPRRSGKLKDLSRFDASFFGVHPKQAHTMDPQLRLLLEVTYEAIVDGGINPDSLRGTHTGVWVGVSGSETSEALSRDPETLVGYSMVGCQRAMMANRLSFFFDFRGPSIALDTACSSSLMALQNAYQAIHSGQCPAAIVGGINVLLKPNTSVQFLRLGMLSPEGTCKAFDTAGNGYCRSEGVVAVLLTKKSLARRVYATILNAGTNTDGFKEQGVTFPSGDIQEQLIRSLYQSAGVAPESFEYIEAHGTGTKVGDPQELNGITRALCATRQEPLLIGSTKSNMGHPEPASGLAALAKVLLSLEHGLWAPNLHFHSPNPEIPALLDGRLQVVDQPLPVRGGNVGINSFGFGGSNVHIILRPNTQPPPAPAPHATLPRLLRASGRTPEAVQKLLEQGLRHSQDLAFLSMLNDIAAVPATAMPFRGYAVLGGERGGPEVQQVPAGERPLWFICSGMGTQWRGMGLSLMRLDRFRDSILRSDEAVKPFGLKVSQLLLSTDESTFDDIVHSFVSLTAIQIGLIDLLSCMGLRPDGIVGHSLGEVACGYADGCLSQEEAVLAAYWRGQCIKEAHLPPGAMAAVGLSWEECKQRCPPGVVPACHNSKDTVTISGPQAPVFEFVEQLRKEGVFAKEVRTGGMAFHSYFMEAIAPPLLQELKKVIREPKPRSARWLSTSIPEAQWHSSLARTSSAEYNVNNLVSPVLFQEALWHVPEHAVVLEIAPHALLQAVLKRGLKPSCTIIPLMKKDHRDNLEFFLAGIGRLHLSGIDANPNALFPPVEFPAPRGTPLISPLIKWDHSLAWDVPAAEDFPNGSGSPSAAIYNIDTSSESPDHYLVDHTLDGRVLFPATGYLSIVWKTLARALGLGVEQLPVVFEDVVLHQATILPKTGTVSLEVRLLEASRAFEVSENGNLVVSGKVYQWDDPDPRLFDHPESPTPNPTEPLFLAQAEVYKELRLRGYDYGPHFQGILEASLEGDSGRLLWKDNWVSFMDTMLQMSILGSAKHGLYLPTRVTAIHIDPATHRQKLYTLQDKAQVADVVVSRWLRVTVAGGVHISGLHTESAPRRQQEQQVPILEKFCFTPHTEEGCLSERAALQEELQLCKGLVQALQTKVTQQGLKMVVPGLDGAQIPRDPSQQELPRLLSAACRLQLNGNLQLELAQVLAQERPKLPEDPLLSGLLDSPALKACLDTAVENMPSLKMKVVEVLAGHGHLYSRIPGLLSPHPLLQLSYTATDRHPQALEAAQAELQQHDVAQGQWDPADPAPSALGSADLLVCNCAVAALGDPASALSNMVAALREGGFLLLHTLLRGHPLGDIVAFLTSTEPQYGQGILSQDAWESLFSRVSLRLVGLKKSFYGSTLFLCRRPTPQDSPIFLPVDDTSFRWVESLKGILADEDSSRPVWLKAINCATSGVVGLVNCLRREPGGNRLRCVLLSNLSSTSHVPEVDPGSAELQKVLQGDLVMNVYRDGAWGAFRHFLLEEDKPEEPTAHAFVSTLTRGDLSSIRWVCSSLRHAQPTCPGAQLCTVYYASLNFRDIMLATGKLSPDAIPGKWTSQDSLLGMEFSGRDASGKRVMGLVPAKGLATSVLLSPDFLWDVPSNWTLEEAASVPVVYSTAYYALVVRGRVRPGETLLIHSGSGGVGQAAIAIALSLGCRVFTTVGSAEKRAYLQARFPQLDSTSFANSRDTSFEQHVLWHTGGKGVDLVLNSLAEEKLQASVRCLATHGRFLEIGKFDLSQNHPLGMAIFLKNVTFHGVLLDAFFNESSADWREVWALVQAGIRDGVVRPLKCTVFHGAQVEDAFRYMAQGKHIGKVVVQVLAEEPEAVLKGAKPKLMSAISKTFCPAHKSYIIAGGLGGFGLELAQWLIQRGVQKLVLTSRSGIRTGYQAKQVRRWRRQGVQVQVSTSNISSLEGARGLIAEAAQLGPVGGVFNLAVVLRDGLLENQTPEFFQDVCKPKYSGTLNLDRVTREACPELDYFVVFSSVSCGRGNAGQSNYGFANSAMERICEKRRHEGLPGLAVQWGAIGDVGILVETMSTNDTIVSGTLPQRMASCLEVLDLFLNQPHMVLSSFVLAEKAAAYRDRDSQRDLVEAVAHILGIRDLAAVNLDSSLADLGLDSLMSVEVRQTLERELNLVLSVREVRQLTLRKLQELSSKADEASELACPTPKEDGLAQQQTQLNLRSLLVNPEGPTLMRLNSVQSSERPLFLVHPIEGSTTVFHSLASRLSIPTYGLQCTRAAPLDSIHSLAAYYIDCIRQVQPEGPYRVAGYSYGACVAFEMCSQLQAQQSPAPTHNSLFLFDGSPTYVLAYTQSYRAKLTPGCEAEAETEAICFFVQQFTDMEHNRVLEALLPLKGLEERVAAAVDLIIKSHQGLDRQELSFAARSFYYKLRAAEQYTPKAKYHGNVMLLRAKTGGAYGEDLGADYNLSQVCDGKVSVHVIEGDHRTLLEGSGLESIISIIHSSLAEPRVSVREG
Experimental: Preparation of crude cell extracts: The potential of compounds to inhibit FAS enzymatic activity was determined using a crude cell extract of a cancer cell line or Saccharomyces cerevisiae. The breast cancer cell line ZR-75-1 was grown to confluence in RPMI with 10$FBS. The cells were harvested by scraping, washed once with cold phosphate buffered saline pH 7.5 and stored at -80° C. Extracts were prepared by thawing the cells in the presence of 4 vol. of 25 mM potassium phosphate pH 7.5, 1 mM EDTA, 1 mM DTT, 0.4% digitonin, 0.7 μg/ml pepstatin, 2 μg/ml aprotinin and 0.5 μg/ml leupeptin. Cells were homogenized with a Dounce type homogenizer for 20 strokes. Extracts were cleared by two sequential centrifugations at 30,000 xg, for 30 min each. The extract was dialyzed against 125 mM potassium phosphate pH 6.6, 1 mM EDTA, 1 mM DTT using a 100,000 molecular weight cut off membrane. The extract stored at 4° C. with 3 mM sodium azide. Yeast extracts were prepared from freeze-dried yeast. Yeast were reconstituted in 5 vol/g 100 mM potassium phosphate pH 6.5. Cells were harvested by centrifugation at 3,000 xg for 10 min. Cells were washed with 5 vol 100 mM potassium phosphate pH 6.5 and suspended in 2 vol. 125 mM potassium phosphate pH 6.6, 1 mM EDTA, 1 mM DTT, 0.7 μg/ml pepstatin, 2 μg/ml aprotinin and 0.5 μg/ml leupeptin. Sterile 0.5 mm glass beads were added (1/2 vol) and the mixture vortex vigorously for four 30 s intervals with 30 s rests on ice between mixes. Extracts were cleared by centrifugation and dialyzed as described above.
Testing of compound activity: Compounds were tested for their ability to inhibit FAS enzymatic activity by incubating the compounds with the crude cell extracts and measuring residual FAS activity. The compounds were mixed with a crude cell extract to the desired concentration and the mixture incubated at 10°-25° C. for 30 min. Residual FAS activity was measured as described below. The concentration of compound giving 50% maximal activity defined the IC50 which was calculated from a 4-parameter equation of the dose-response curves.
(§2) Enzymatic assay conditions: The FAS enzyme activity was measured by monitoring the oxidation of NADPH spectrophotometrically (Dils, R. and E. M. Carey, 1975, Fatty acid synthase from rabbit mammary gland. Methods in Enzymol. 35:74-83). A 50 μl portion of an extract or extract-compound mixture was mixed with 50 μl 250 mM potassium phosphate pH 6.6, 40 μM acetyl-CoA, 200 μM malonyl-CoA, 1 mM NADPH and 2 mM DTT. The initial rate of NADPH oxidation at 25° C. was measured by monitoring the decrease in absorbance at 340 nm.

HIV protease = details: cited from earlier work
[3] = tested on: mammary, colon, and prostatic carcinoma lines; details: U.S. Ser. No. 08/096,908 and its CIP; cited from earlier work
fatty acid synthase = details: cited from earlier work
[4] = biological target: T2, FAS (fatty acid synthase), Yeast (Saccharomyces cerevisiae, UniProt P19097); assay: FAS enzymatic assay, crude yeast extract (NADPH oxidation); assay type: biochemical; details: 30 min incubation at 10°-25° C., read-out: IC50 for inhibition of FAS activity, Yeast
T2 construct: Yeast extracts were prepared from freeze-dried yeast; endogenous in cells; host or cells: freeze-dried Saccharomyces cerevisiae (crude glass-bead extract, dialyzed)
Experimental: Preparation of crude cell extracts: The potential of compounds to inhibit FAS enzymatic activity was determined using a crude cell extract of a cancer cell line or Saccharomyces cerevisiae. The breast cancer cell line ZR-75-1 was grown to confluence in RPMI with 10$FBS. The cells were harvested by scraping, washed once with cold phosphate buffered saline pH 7.5 and stored at -80° C. Extracts were prepared by thawing the cells in the presence of 4 vol. of 25 mM potassium phosphate pH 7.5, 1 mM EDTA, 1 mM DTT, 0.4% digitonin, 0.7 μg/ml pepstatin, 2 μg/ml aprotinin and 0.5 μg/ml leupeptin. Cells were homogenized with a Dounce type homogenizer for 20 strokes. Extracts were cleared by two sequential centrifugations at 30,000 xg, for 30 min each. […]
Testing of compound activity: Compounds were tested for their ability to inhibit FAS enzymatic activity by incubating the compounds with the crude cell extracts and measuring residual FAS activity. […] Residual FAS activity was measured as described below. […]
as §2, with “A 50 μl portion of an extract or extract-compound mixture was mixed with 50 μl 250 mM potassium phosphate pH 6.6, 40 μM acetyl-CoA, 200 μM malonyl-CoA, 1 mM NADPH and 2 mM DTT.” left out

[5] = tested on: myristoylation of proteins; details: cited from earlier work
[6] = tested on: bacteria, actinomycetes, and mycobacteria; details: cited from earlier work
SKBr 3 cells = assay: Growth inhibition assay, SKBr 3 cells (crystal violet); assay type: cell-based; details: Homo sapiens, SK-BR-3, 72 h; 3 days with compound
Experimental: as §1

M. tuberculosis = assay: Radiometric (Bactec) susceptibility test, M. tuberculosis; assay type: cell-based; details: Mycobacterium tuberculosis
[7] = tested on: fatty acid synthase expression in MCF-7 cells; details: Northern analysis; cited from earlier work
[8] = tested on: panel of cell lines with varying levels of FAS enzyme activity; assay: Anti-proliferative effect on a panel of cell lines with varying levels of FAS; assay type: cell-based
acyl CoA-synthetase = details: for long-chain fatty acids; cited from earlier work
Vero cells = details: cited from earlier work
Raji cells = details: cited from earlier work
[9] = biological target: rat liver acyl-CoA synthetase; details: read-out: concentration causing 50% inhibition of acyl-CoA synthetase; cited from earlier work
Hela cells = details: cited from earlier work

Row | Molecule | IC50 (HS 27 cells) [µM] | IC50 [2] [µM] | IC50 (SKBr 3 cells) [µM] | further results
1 | C/C=C/C/C=C/CCC(=O)[C@H]1O[C@H]1C(N)=O [CTC002, (2S) (3R) 2,3-epoxy-4-oxo-7,10 dodecadienoyl amide] | 20 | 8.6 | 20 | in vitro activity against Mycobacterium tuberculosis [1]: no activity; MIC (Candida albicans): < 1.5 µg/mL; inhibition of viral HIV protease, concentration (HIV protease): 5 mg/mL; growth inhibition of carcinoma lines [3]: potently inhibit the growth; type of inhibition of fatty acid synthase (fatty acid synthase): specific and non-competitive inhibitor; IC50 [4]: 0.4 µM; inhibition of myristoylation of proteins [5]: does not specifically inhibit; in vitro activity against some bacteria, actinomycetes, and mycobacteria [6]: some in vitro activity
2 | Cc1cccc(/C=C/CCC2C=CC(=O)O2)c1 (centres unmarked) [CTC003] | > 50 | > 100 | > 50 | 
3 | Cc1cccc(/C=C/CCC(O)C2OC2C(N)=O)c1 (centres unmarked) [CTC004] | > 50 | > 100 | > 50 | 
4 | Cc1cccc(/C=C/CCCN2C(=O)C=CC2=O)c1 [CTC005] | > 50 | > 78 | > 50 | 
5 | Cc1cccc(/C=C/CCC(=O)C2OC2C(N)=O)c1 (centres unmarked) [CTC006] | 32 | 10.4 | 21 | IC50 [4]: 82 µM; MIC (M. tuberculosis): 25 µg/mL (≈ 96.4 µM)
6 | C/C=C/C/C=C/CCN1C(=O)C=CC1=O [CTC013] | 63 | > 97 | 63 | 
7 | C/C=C/C/C=C/CCCN1C(=O)C=CC1=O [CTC014] | > 50 | > 92 | > 50 | 
8 | N[C@@H](Cc1cc(I)c(Oc2ccc(O)c(I)c2)c(I)c1)C(=O)O [T3, reference compound] |  |  |  | effect on fatty acid synthase expression [7]: no effect
9 | CCCCCCCCCCCCCCOc1ccc(C(=O)O)o1 [TOFA] |  |  |  | anti-proliferative effect [8]: anti-proliferative effect
10 | CCCCCC/C=C/C=C/C=N/NN=O [Triacsin A] |  |  |  | mechanism of inhibition of acyl CoA-synthetase (acyl CoA-synthetase): competitive
11 | CCC/C=C/C/C=C/C=C/C=NN=NO [Triacsin C, 1-hydroxy-3-(E, E, E-2',4',7'-undecatrienylidine) triazene] |  |  |  | growth inhibition of Vero cells (Vero cells): inhibit growth; growth inhibition, concentration (Raji cells): 1.0 µM; IC50 [9]: 8.7 µM; growth inhibition of Hela cells (Hela cells): inhibit growth
12 | CC(=O)[C@H]1CC[C@H]2[C@@H]3CCC4=CC(=O)CC[C@]4(C)[C@H]3CC[C@]12C [progesterone, reference compound] |  |  |  | increase in fatty acid synthase expression [7]: 5-10 fold
13 | insulin growth factor-1: insulin growth factor-1 |  |  |  | effect on fatty acid synthase expression [7]: only slightly stimulatory
14 | insulin: insulin |  |  |  | effect on fatty acid synthase expression [7]: only slightly stimulatory
